Experimental data reported in ChEMBL document CHEMBL6092203, “Discovery of Novel PROTAC-Based HPK1 Degraders with High Potency and Selectivity for Cancer Immunotherapy” (J Med Chem, 2024).
The source made the active and inactive calls. The rule behind the calls is not given here.

Assays:
[1] = target: T1, Protein cereblon/Mitogen-activated protein kinase kinase kinase kinase 1 (Homo sapiens, UniProt Q92918+Q96SW2); experiment: PROTAC activity at CRBN/HPK1 in human Jurkat cells assessed as HPK1 degradation at 1 uM by Western blotting analysis; assay type: cell-based; settings: time 4-72 hrs
T1 sequence (Q92918 whole entry, looked up): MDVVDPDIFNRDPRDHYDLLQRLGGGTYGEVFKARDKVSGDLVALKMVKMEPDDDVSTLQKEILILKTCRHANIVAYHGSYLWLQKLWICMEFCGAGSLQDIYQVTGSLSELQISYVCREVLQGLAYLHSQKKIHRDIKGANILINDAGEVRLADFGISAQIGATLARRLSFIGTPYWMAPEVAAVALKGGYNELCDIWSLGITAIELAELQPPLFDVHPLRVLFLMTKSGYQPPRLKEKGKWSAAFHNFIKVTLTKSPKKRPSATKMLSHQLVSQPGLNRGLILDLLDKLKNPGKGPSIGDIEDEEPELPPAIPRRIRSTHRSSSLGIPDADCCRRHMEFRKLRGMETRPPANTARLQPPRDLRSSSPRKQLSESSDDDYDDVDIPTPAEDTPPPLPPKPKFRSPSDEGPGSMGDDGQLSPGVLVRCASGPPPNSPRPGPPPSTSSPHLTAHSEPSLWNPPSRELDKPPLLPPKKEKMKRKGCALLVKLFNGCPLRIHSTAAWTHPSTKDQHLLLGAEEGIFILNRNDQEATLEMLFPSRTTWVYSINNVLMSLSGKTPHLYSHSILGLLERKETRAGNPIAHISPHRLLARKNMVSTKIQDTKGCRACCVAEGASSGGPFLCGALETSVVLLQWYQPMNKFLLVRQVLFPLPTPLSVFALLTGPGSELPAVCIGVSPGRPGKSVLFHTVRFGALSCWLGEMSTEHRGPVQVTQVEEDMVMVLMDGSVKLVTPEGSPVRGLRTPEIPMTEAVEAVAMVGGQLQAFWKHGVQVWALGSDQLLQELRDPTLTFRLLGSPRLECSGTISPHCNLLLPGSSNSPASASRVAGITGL
T1 sequence (Q96SW2 whole entry, looked up): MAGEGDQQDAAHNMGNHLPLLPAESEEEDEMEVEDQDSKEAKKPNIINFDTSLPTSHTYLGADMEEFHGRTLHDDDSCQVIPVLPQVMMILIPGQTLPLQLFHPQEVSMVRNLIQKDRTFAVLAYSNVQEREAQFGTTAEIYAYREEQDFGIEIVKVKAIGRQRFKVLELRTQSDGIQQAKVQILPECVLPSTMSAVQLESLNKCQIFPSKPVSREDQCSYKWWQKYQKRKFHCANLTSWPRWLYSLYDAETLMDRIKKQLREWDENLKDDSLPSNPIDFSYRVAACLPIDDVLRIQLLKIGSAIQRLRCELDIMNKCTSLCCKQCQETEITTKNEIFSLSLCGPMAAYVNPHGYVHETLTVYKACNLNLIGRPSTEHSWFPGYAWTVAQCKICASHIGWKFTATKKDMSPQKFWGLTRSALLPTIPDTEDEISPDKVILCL

[2] = target: T1, Protein cereblon/Mitogen-activated protein kinase kinase kinase kinase 1; experiment: PROTAC activity at CRBN/HPK1 in human Jurkat cells assessed as HPK1 degradation measured after 24 hrs by Western blotting analysis; assay type: cell-based; settings: dose 1-2000 nM
[3] = Induction of p-SLP76 at Ser376 protein degradation in human Jurkat cells incubated for 24 hrs by Western blotting analysis; assay type: cell-based
[4] = test system: Jurkat; experiment: Effect on p-SLP76 at Y145 residue protein expression in human Jurkat cells at 1 to 2000 nM incubated for 24 hrs by Western blotting analysis; assay type: functional, cell-based; settings: dose 1-2000 nM
[5] = target: T1, Protein cereblon/Mitogen-activated protein kinase kinase kinase kinase 1; experiment: PROTAC activity at CRBN/HPK1 in human Jurkat cells assessed as HPK1 degradation at 1 uM pretreated with lenalidomide for 4 hrs followed by compound addition and measured after 24 hrs by Western blotting analysis; assay type: cell-based
[6] = Induction of IL-2 secretion in human PBMCs incubated for 24 hrs by ELISA; assay type: functional, cell-based, PBMC
[7] = Plasma protein binding in mouse at 10 uM incubated for 6 hrs by equilibrium dialysis based LC-MS/MS method; assay type: ADME, cell-free; settings: read-out: PPB (converted)
[8] = Plasma protein binding in dog at 10 uM incubated for 6 hrs by equilibrium dialysis based LC-MS/MS method; assay type: ADME, cell-free, Canis lupus familiaris; settings: read-out: PPB (converted)
[9] = Metabolic stability in human hepatocytes assessed as intrinsic clearance at 1 uM incubated for 90 mins by LC-MS/MS method; assay type: ADME, cell-based, Hepatocyte; settings: 1.5 h
[10] = Clearance in C57BL/6J mouse at 2 mg/kg, iv measured upto 24 hrs by LC-MS analysis; settings: in vivo
[11] = AUCinfinity in Sprague-Dawley rat at 2 mg/kg, iv measured upto 24 hrs by LC-MS analysis; assay type: ADME, organism-based; settings: in vivo
[12] = Clearance in Beagle dog at 1 mg/kg, iv measured upto 24 hrs by LC-MS analysis; settings: in vivo
[13] = Volume of distribution at steady state in Beagle dog at 1 mg/kg, iv measured upto 24 hrs by LC-MS analysis; assay type: ADME, organism-based, Canis lupus familiaris; settings: in vivo
[14] = Drug metabolism in human hepatocytes assessed as phase 1 metabolites formation at 10 uM incubated for 120 mins by UHPLC-UV/MS/MS method; assay type: ADME, cell-based, Hepatocyte; settings: 2 h
[15] = Drug metabolism in monkey hepatocytes assessed as phase 1 metabolites formation at 10 uM incubated for 120 mins by UHPLC-UV/MS/MS method; assay type: ADME, cell-based, Macaca mulatta, Hepatocyte; settings: rhesus monkey, 2 h
[16] = Drug metabolism in dog hepatocytes assessed as phase 2 metabolites formation at 10 uM incubated for 120 mins by UHPLC-UV/MS/MS method; assay type: ADME, cell-based, Canis lupus familiaris, Hepatocyte; settings: 2 h
[17] = Clearance in mouse relative to hepatic blood flow; settings: in vivo
[18] = Drug distribution in rat lung measured after 0.5 to 6 hrs; assay type: ADME, tissue-based; settings: in vivo, time 0.5-6 hrs
[19] = Drug distribution in rat brain measured after 2 hrs; assay type: ADME, tissue-based; settings: in vivo
[20] = test system: MC-38; experiment: Antitumor activity against mouse MC38 cells implanted in po dosed C57BL/6J mouse assessed as tumor growth inhibition administered for 3 to 4 weeks; assay type: functional, organism-based; settings: time 3-4 weeks
[21] = test system: MC-38; experiment: Synergistic antitumor activity against mouse MC38 cells implanted in C57BL/6J mouse assessed as tumor growth inhibition at 100 mg/kg, po QD measured after 4 weeks in presence of 5 mg/kg anti-PD1 and measured twice a week; assay type: functional; settings: MC-38, 672 h, read-out: TGI
[22] = test system: MC-38; experiment: Synergistic antitumor activity against mouse MC38 cells implanted in C57BL/6J mouse assessed as tumor growth inhibition at 1 mg/kg, po bid measured after 4 weeks in presence of 5 mg/kg anti-PD1 and measured twice a week; assay type: functional; settings: MC-38, 672 h, read-out: TGI
[23] = test system: MC-38; experiment: Synergistic antitumor activity against mouse MC38 cells implanted in C57BL/6J mouse assessed as tumor growth inhibition at 0.1 mg/kg, po bid measured after 4 weeks in presence of 5 mg/kg anti-PD1 and measured twice a week; assay type: functional; settings: MC-38, 672 h, read-out: TGI
[24] = test system: MC-38; experiment: Antitumor activity against mouse MC38 cells implanted in C57BL/6J mouse assessed as reduction in tumor volume at 100 mg/kg, po QD administered for 3 to 4 weeks (reference value: 1549.22 +/- 217.92 mm3); assay type: functional; settings: time 3-4 weeks
[25] = test system: MC-38; experiment: Synergistic antitumor activity against mouse MC38 cells implanted in C57BL/6J mouse assessed as reduction in tumor volume at 100 mg/kg, po QD administered for 3 to 4 weeks in presence of 5 mg/kg anti-PD1 and measured twice a week (reference value: 1549.22 +/- 217.92 mm3); assay type: functional; settings: time 3-4 weeks
[26] = test system: MC-38; experiment: Synergistic antitumor activity against mouse MC38 cells implanted in C57BL/6J mouse assessed as reduction in tumor volume at 0.1 mg/kg, po bid administered for 3 to 4 weeks in presence of 5 mg/kg anti-PD1 and measured twice a week (reference value: 1549.22 +/- 217.92 mm3); assay type: functional; settings: time 3-4 weeks
[27] = test system: MC-38; experiment: Antitumor activity against mouse MC38 cells implanted in C57BL/6J mouse assessed as reduction in tumor weight at 0.1 mg/kg, po BID administered for 3 to 4 weeks (reference value: 1.79 +/- 0.24 g); assay type: functional; settings: time 3-4 weeks
[28] = test system: MC-38; experiment: Synergistic antitumor activity against mouse MC38 cells implanted in C57BL/6J mouse assessed as tumor weight inhibition rate at 100 mg/kg, po QD measured after 4 weeks in presence of 5 mg/kg anti-PD1 and measured twice a week; assay type: functional; parameters: scale not given: the % may be the effect or the level left
[29] = Tmax in male Sprague-Dawley rat at 100 mg/kg/day, po measured at day 1; assay type: ADME, organism-based; settings: in vivo, time 1 day
[30] = AUC(0 to 24 hrs) in female Sprague-Dawley rat at 100 mg/kg/day, po measured at day 1; assay type: ADME, organism-based; settings: in vivo, time 1 day
[31] = Toxicity in Sprague-Dawley rat assessed as no observable adverse effect level exposure measured after 14 days; settings: in vivo, 336 h, time 14 day
[32] = in vivo; settings: C57BL/6J, mouse, po, 10 mg/kg
[33] = in vivo; settings: C57BL/6J, mouse, po, 10 mg/kg; remark: listed apart in the source
[34] = in vivo; settings: Sprague-Dawley, rat, po, 1 mg/kg
[35] = in vivo; settings: beagle, dog, po, 5 mg/kg
Description: Cmax in Beagle dog at 5 mg/kg, po measured upto 24 hrs by LC-MS analysis

[36] = in vivo; settings: beagle, dog, po, 5 mg/kg; remark: listed apart in the source
Description: Oral bioavailability in Beagle dog at 5 mg/kg measured upto 24 hrs by LC-MS analysis

[37] = in vivo; settings: female, Sprague-Dawley, rat, po, 2 mg/kg
[38] = in vivo; settings: male, Sprague-Dawley, rat, po, 100 mg/kg
[39] = in vivo; settings: female, Sprague-Dawley, rat, po, 2 mg/kg; remark: listed apart in the source
[40] = in vivo; settings: female, Sprague-Dawley, rat, po, 100 mg/kg
[41] = in vitro; settings: mouse, liver microsomes

- Activity [1]: Time-dependent-effect
- Activity [2]: Dose-dependent-effect
- DC50 [3]: 5.63 nM
- Activity [5]: inactive
- fraction unbound at 6 h, 10 µM [7]: 0.0025
- fraction unbound at 6 h, 10 µM [8]: 0.0004
- CLH [9]: 1.92 µL/min/mg
- clearance at 24 h [10]: 6 mL/min/kg
- AUC(0-inf) [11]: 8.22 µg·h/mL
- clearance at 24 h [12]: 17 mL/min/kg
- Vdss [13]: 0.386 L/kg
- Drug metabolism [14]: metabolite_detected
- Drug metabolism [15]: metabolite_detected
- Drug metabolism [16]: metabolite_detected
- clearance [17]: 27 mL/min/kg
- Drug uptake [18]: Active
- Drug uptake [19]: Active
- Tmax [29]: 7.5 h
- AUC(0-t) at 24 h [30]: 110 µg·h/mL
- Cmax at 24 h [32]: 3180 ng/mL
- bioavailability at 24 h [33]: 43.7%
- bioavailability at 24 h [34]: 19.2%
- Cmax at 24 h [35]: 111 ng/mL
- bioavailability at 24 h [36]: 16%
- Cmax at 24 h [37]: 63.9 ng/mL
- Cmax at 24 h [38]: 8620 ng/mL
- AUC at 336 h [39]: 0.645 µg·h/mL
- AUC at 336 h [40]: 121 µg·h/mL
- half-life at 0.75 h, 1 µM [41]: 1.73 h
Compound: O=C1CCN(c2cc(C(=O)N3CCC(CC4CCN(c5ccc(-c6cnc7[nH]cc(-c8cnn(CC(F)(F)F)c8)c7n6)cn5)CC4)CC3)ccc2Cl)C(=O)N1
- Activity [4]: inactive
- Emax [6]: 1151.57 pg/mL
- Activity [20]: Dose-dependent-effect; Twice Daily Dose Was Slightly Better Than Once Daily
- inhibition in vivo at 100 mg/kg [21]: 91%
- inhibition in vivo at 1 mg/kg [22]: 78.2%
- inhibition in vivo at 0.1 mg/kg [23]: 39.7%
- Activity [24]: 667.6 mm3
- Activity [25]: 139.92 mm3
- Activity [26]: 934.84 mm3
- Activity [27]: 1.4 g
- Activity [28]: 83.04%
- NOAEL [31]: 136 µg·h/mL
